Measurements published in ChEMBL document CHEMBL1158668, “Novel bioactivities of Curcuma longa constituents” (1998).
Calls of active or inactive are those of the source. The rule behind the calls is not given here.

Tests used:
[1] = system: Aedes aegypti; assay: Mosquitocidal activity against Aedes aegypti fourth instar larvae assessed as mortality at 50 ug/mL after 18 hrs; type: functional, organism-based
[2] = system: Aedes aegypti; assay: Mosquitocidal activity against Aedes aegypti fourth instar larvae; type: functional
[3] = target: T1, DNA topoisomerase 2 (Saccharomyces cerevisiae S288c) (UniProt P06786); assay: Inhibition of topoisomerase 2 in Saccharomyces cerevisiae JN394t-1 assessed as inhibition of growth at 50 ug/mL after 72 hrs
T1 sequence (whole entry): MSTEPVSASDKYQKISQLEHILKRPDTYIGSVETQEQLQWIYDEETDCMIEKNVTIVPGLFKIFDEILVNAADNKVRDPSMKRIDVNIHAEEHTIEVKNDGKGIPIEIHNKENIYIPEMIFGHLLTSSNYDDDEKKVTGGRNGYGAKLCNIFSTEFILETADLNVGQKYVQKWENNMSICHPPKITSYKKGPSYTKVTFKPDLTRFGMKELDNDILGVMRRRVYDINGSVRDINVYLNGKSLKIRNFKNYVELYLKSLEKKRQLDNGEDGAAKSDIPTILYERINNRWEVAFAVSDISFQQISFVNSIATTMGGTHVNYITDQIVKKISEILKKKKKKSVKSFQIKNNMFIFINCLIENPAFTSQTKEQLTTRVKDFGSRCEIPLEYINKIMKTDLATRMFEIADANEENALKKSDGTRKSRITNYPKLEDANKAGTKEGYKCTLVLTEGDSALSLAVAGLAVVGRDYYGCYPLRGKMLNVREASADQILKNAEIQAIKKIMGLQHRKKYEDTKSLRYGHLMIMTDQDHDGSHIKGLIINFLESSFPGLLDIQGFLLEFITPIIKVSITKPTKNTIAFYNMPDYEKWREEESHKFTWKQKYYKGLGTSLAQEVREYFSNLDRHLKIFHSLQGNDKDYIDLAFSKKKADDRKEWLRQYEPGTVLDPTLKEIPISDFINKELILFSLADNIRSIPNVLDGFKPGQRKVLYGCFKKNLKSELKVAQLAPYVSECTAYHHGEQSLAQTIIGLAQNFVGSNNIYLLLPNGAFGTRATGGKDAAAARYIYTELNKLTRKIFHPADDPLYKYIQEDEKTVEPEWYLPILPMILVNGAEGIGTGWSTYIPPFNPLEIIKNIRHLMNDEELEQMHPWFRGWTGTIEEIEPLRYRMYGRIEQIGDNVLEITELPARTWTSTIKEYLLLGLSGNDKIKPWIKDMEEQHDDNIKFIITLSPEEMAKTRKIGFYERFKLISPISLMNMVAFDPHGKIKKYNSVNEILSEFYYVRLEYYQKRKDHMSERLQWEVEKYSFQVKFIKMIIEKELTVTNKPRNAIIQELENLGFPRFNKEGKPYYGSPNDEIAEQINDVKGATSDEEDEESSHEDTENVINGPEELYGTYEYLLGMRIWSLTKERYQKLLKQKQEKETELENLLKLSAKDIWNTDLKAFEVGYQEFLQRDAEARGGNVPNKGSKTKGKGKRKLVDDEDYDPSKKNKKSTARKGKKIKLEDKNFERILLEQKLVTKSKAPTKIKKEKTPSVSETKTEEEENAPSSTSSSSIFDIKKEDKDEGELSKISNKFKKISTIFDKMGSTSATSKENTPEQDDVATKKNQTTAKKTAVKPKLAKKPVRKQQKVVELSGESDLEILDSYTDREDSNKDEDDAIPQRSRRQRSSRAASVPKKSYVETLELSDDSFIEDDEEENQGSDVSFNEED

[4] = target: T2, DNA topoisomerase 1 (Saccharomyces cerevisiae S288c) (UniProt P04786); assay: Inhibition of topoisomerase 1 in Saccharomyces cerevisiae JN394t2-5 assessed as inhibition of growth at 50 ug/mL after 72 hrs
T2 sequence (whole entry): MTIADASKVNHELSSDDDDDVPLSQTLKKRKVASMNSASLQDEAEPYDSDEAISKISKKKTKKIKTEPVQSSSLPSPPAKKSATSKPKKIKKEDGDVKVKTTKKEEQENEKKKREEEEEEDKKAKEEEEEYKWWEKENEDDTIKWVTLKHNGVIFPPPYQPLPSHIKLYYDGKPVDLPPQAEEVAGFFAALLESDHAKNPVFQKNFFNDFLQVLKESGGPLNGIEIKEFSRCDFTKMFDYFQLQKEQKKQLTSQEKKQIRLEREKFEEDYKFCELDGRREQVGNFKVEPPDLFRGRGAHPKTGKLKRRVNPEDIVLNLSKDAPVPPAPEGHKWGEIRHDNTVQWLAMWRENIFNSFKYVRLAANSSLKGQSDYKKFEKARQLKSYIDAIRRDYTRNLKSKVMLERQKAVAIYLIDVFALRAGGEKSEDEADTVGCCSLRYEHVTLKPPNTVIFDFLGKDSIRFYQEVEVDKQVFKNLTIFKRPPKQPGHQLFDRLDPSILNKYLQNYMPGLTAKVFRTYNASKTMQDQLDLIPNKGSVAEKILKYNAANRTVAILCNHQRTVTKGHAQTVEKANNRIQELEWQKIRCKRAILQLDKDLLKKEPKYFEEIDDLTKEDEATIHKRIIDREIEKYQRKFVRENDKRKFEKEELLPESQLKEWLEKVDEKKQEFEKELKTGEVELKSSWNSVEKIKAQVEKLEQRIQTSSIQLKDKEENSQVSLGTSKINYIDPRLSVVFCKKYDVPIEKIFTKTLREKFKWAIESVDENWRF

[5] = target: T1, DNA topoisomerase 2 (Saccharomyces cerevisiae S288c); assay: Inhibition of topoisomerase 2 in Saccharomyces cerevisiae JN394t2-5 assessed as inhibition of growth at 50 ug/mL after 72 hrs
[6] = target: T1, DNA topoisomerase 2 (Saccharomyces cerevisiae S288c); assay: Inhibition of topoisomerase 2 in Saccharomyces cerevisiae JN394 assessed as inhibition of growth at 50 ug/mL after 72 hrs
[7] = target: T2, DNA topoisomerase 1 (Saccharomyces cerevisiae S288c); assay: Inhibition of topoisomerase 1 in Saccharomyces cerevisiae JN394t-1 assessed as inhibition of growth at 50 ug/mL after 72 hrs
[8] = target: T2, DNA topoisomerase 1 (Saccharomyces cerevisiae S288c); assay: Inhibition of topoisomerase 1 in Saccharomyces cerevisiae JN394 assessed as inhibition of growth at 50 ug/mL after 72 hrs
[9] = system: Candida parapsilosis; assay: Antimicrobial activity against Candida parapsilosis at 25 ug/mL; type: functional, organism-based
[10] = system: Pichia kudriavzevii; assay: Antimicrobial activity against Candida krusei at 25 ug/mL; type: functional, organism-based
[11] = system: Aedes aegypti; assay: Mosquitocidal activity against Aedes aegypti fourth instar larvae assessed as mortality at 10 ug/mL after 48 hrs; type: functional
[12] = system: Candida albicans; assay: Antimicrobial activity against Candida albicans at 1 ug/mL; type: functional, organism-based
[13] = target: T1, DNA topoisomerase 2 (Saccharomyces cerevisiae S288c); assay: Inhibition of topoisomerase 2 in Saccharomyces cerevisiae JN394 assessed as inhibition of growth at 25 ug/mL after 72 hrs
[14] = target: T2, DNA topoisomerase 1 (Saccharomyces cerevisiae S288c); assay: Inhibition of topoisomerase 1 in Saccharomyces cerevisiae JN394t-1 assessed as inhibition of growth at 25 ug/mL after 72 hrs
[15] = target: T2, DNA topoisomerase 1 (Saccharomyces cerevisiae S288c); assay: Inhibition of topoisomerase 1 in Saccharomyces cerevisiae JN394 assessed as inhibition of growth at 25 ug/mL after 72 hrs
[16] = target: T1, DNA topoisomerase 2 (Saccharomyces cerevisiae S288c); assay: Inhibition of topoisomerase 2 in Saccharomyces cerevisiae JN394t-1 assessed as inhibition of growth at 25 ug/mL after 72 hrs
[17] = target: T2, DNA topoisomerase 1 (Saccharomyces cerevisiae S288c); assay: Inhibition of topoisomerase 1 in Saccharomyces cerevisiae JN394t2-5 assessed as inhibition of growth at 25 ug/mL after 72 hrs
[18] = target: T1, DNA topoisomerase 2 (Saccharomyces cerevisiae S288c); assay: Inhibition of topoisomerase 2 in Saccharomyces cerevisiae JN394t2-5 assessed as inhibition of growth at 25 ug/mL after 72 hrs

| Activity [3] | Activity [4] | Activity [5] | Activity [6] | Activity [7] | Activity [8] | SMILES | further results |
| --- | --- | --- | --- | --- | --- | --- | --- |
|  |  |  |  |  |  | CC(C)=CC(=O)CC(C)c1ccc(C)cc1 (centres undefined) | Activity [1]: Active; LD100 [2]: 50 µg/mL |
| Active | Active | Active | Active | Active | Active | COc1cc(/C=C/C(O)=C/C(=O)/C=C/c2ccc(O)cc2)ccc1O |  |
|  |  |  |  |  |  | C=C1CC[C@H]2C(C)(C)CCC[C@]2(C)[C@H]1C/C=C(\C=O)CC=O [LABDADIENEDIAL] | Activity [9]: Active; Activity [10]: Active; Activity [11]: 100%; Activity [12]: Active |
| Active | Active | Active | Active | Active | Active | O=C(/C=C/c1ccc(O)cc1)CC(=O)/C=C/c1ccc(O)cc1 | Activity [13]: Active; Activity [14]: Active; Activity [15]: Active; Activity [16]: Active; Activity [17]: Active; Activity [18]: Active |
